US20140213779A1, “RIBOSWITCHES” (THE UNIVERSITY OF MANCHESTER, priority 2011, published 2014)
Like-named read-outs stand apart in the source and are kept apart here.

Legend:
M6 riboswitch [1] = experiment: Dual promoter construct, DsRed expression by fluorescence; format: cell-based, Escherichia coli; details: for maximum normalized red fluorescence: Am 0→250 μM
Description: (§1) Here we show how two mutually orthogonal riboswitches can be independently controlled by varying concentrations of two distinct synthetic inducers, allowing dynamic expression landscapes to be accessed and optimal co-expression stoichiometries to be established. In the first instance a dual promoter system was constructed, in the pBKS vector with the orthogonal M6 riboswitch selected previously (Dixon et al Proc Natl Acad Sci USA 2010, 107, 2830] or Dixon et al Angew. Chem. 2012, 51, 3620-3624. controlling translation of the red fluorescent protein DsRed [Bevis, Nat. Biotech. 20:83 (2002)] in response to the ligand ammeline (Am). The bacteriophage lambda tR1 transcription terminator [Graham. NAR, Vol. 32:3093 (2004] was inserted downstream of DsRed gene, followed by a second lac promoter and the 2-aminopurine (2AP)-responsive parental add A-riboswitch [Dixon et al Proc Natl Acad Sci USA 2010, 107, 2830 & Mandal, Nat Struct Mol Biol 11: 29 (2004)] controlling translation of the green fluorescent protein eGFP (FIG. 34A). Escherichia coli was transformed with this dual promoter construct and expression of DsRed and eGFP genes, was then determined by fluorescence as function of inducer concentrations.
(§2) To explore the capacity of the dual promoter system for controlling the differential expression of DsRed and eGFP, multi-dosage matrix expression analysis was performed where induction factors (IF), the ratio of the maximum ligand-induced protein expression over the basal protein expression level, are determined for a full range of inducer concentrations (FIGS. 34A & B).
(§3) A number of reasons could possibly account for this. Firstly, ribosomal read-through could result in a more efficient initiation of translation at the eGFP RBS. Secondly, riboswitches that control gene expression through changing the accessibility of the RBS (like addA), may also rely on Rho-dependent termination of transcription [Roth, Annu. Rev. Biochem. 78:305 (2009) & Peters Proc. Natl. Acad. Sci. USA 106:15406 (2009)]. In the case of the operon, when both riboswitches are activated by Am and 2AP, ribosomes will be recruited at both RBSs and will occupy the full length of the transcript, blocking Rho binding [Epshtein, Nature 463:245 (2010)]. Consequently the levels of full-length mRNA transcripts in the cell will be higher, than if either or both ligands are absent. Finally protection of the full-length transcript from nuclease degradation by actively translating ribosomes [Deana, Genes Dev. […] Titration of the M6 selective inducer Am (0→250 μM) against the dual promoter in either the absence or presence 2AP (0 or 250 μM) gives dose-dependent protein expression curves for DsRed that are very similar, with maximum normalized red fluorescence (fu/OD620) of 1.1×10^5 and 1.0×10^5 respectively (FIG. 36A). […]

[2] = tested on: intergenic add-A riboswitch; experiment: Operon construct, eGFP expression by fluorescence; format: cell-based, Escherichia coli
Description: In a second series of experiments, a synthetic operon was designed with one promoter driving transcription of a single bicistronic mRNA comprising the M6 riboswitch regulating DsRed, and an intergenic add-A riboswitch controlling a downstream eGFP gene (FIG. 35A). […] Moreover, the maximum DsRed induction factor was 21.2, which is also more than 2-fold higher than the dual promoter system (FIG. 35B). The organisation of M6-DsRed in an operon, permits differential control, but also gives rise to significant amplification of the dynamic range of gene expression (IF), compared with the dual promoter system. […] In this case, eGFP output was clearly dependent on both ligands. A synergistic effect of the two ligands is observed in the induction factor matrix analysis, across a full range of Am and 2AP concentrations (FIG. 35C), with the expression landscape reaching a maximum induction factor of 24.1 in the presence of the highest concentrations of both inducers. […] Similarly no cross-talk is observed with the dual promoter system described above.
as §3, with “(2010)].” for “(2010)]. Consequently the levels of full-length mRNA transcripts in the cell will be higher, than if either or both ligands are absent. Finally protection of the full-length transcript from nuclease degradation by actively translating ribosomes [Deana, Genes Dev.”

add A-riboswitch = experiment: Dual promoter construct, eGFP expression by fluorescence; format: cell-based, Escherichia coli
Description: as §1, §2
(§4) A number of reasons could possibly account for this. Firstly, ribosomal read-through could result in a more efficient initiation of translation at the eGFP RBS. […] Titration of the M6 selective inducer Am (0→250 μM) against the dual promoter in either the absence or presence 2AP (0 or 250 μM) gives dose-dependent protein expression curves for DsRed that are very similar, with maximum normalized red fluorescence (fu/OD620) of 1.1×10^5 and 1.0×10^5 respectively (FIG. 36A). […]

M6 = details: earlier in vitro studies; cited from earlier work
M6″ riboswitch [3] = experiment: T7 RNA polymerase expression under M6″ riboswitch control (spacer constructs); details: for regulation upon addition of IPTG: IPTG 0.5 mM
Description: (§6) Expression is induced using IPTG (0.5 mM) and increasing concentrations of A43 (respectively 0, 5, 10, 25, 50, 100, 250 uM) shown in the third to eighth columns.

M6″ riboswitch [4] = experiment: M6″-eGFP construct, GFP expression; format: cell-based, E. coli
Description: (§5) Re-engineering the adenine responsive add A-riboswitch (addA) from Vibrio vulnificus (FIGS. 27A & B) [Dixon et al Proc Natl Acad Sci USA 2010, 107, 2830].
In contrast, the genetic construct of the invention comprises a lac promoter/operator upstream of a 2nd generation riboswitch M6″-eGFP the lac promoter/operator and riboswitch respectively providing direct control of the expression of GFP via transcriptional and translational control.
Both the comparator construct and the genetic construct of the invention were provided on high copy plasmids in Top 10F′.

M6″ riboswitch aptamer = experiment: Isothermal titration calorimetry with M6″ aptamer; format: binding
Description: as §5

[5] = tested on: addA(wt) riboswitch aptamer; experiment: Isothermal titration calorimetry with AddA(wt) aptamer; format: binding, Vibrio vulnificus; details: ITC, FIG. 59
Description: Improved 2nd generation ligands have been discovered both in terms of in vivo and in vitro binding affinity.

M6″ riboswitch [6] = tested on: M6″ riboswitch
Description: as §6

AddA riboswitch = experiment: addA-eGFP construct, GFP expression; format: cell-based, E. coli
Description: In the control constructs GFP expression is controlled directly by a lac promoter/operator alone. In contrast, in the gene constructs of the invention GFP expression is controlled by both a lac promoter/operator, and a riboswitch. In this arrangement the lac promoter provides transcriptional control of expression, and the riboswitch provides translational control. […] In this example, the first generation riboswitch comprises AddA (the ligand for which is adenine), and the second generation riboswitch comprises M6″ (the ligand for which is A43).
GFP induction factors (left axis indicated by the green bars) and absolute normalized GFP fluorescence signal (right axis) in the absence of inducer (open shape) and in the presence of inducer (closed shape).

M6C″ riboswitch aptamer = experiment: Isothermal titration calorimetry with M6C″ aptamer; format: binding; details: ITC, M6C″ aptamer domain
Description: as §5

M6C″ riboswitch = experiment: M6C″-eGFP riboswitch-reporter construct, gene expression; format: cell-based, E. coli
Description: as §5

M6 riboswitch [7] = experiment: Operon construct, DsRed expression by fluorescence; format: cell-based, Escherichia coli
Description: In a second series of experiments, a synthetic operon was designed with one promoter driving transcription of a single bicistronic mRNA comprising the M6 riboswitch regulating DsRed, and an intergenic add-A riboswitch controlling a downstream eGFP gene (FIG. 35A). […] Moreover, the maximum DsRed induction factor was 21.2, which is also more than 2-fold higher than the dual promoter system (FIG. 35B). The organisation of M6-DsRed in an operon, permits differential control, but also gives rise to significant amplification of the dynamic range of gene expression (IF), compared with the dual promoter system. […] In this case, eGFP output was clearly dependent on both ligands. […]
as §4

add A = details: earlier in vitro studies; cited from earlier work
lac promoter/operator = experiment: Control lac P/O construct, GFP expression; format: cell-based, E. coli
Description: FIGS. 52 and 53 illustrate the increased dynamic regulation of expression of a gene of interest (here exemplified by green fluorescent protein) that can be achieved using gene constructs in accordance with the present invention, as compared to comparator (control) constructs. In the control constructs GFP expression is controlled directly by a lac promoter/operator alone. In contrast, in the gene constructs of the invention GFP expression is controlled by both a lac promoter/operator, and a riboswitch. In this arrangement the lac promoter provides transcriptional control of expression, and the riboswitch provides translational control. FIGS. 52 and 53 respectively show data generated by gene constructs of the invention comprising first and second generation riboswitches (referred to respectively as “1st Generation” and “2nd Generation” constructs) when present on high copy plasmids in E. coli Top10F′. In this example, the first generation riboswitch comprises AddA (the ligand for which is adenine), and the second generation riboswitch comprises M6″ (the ligand for which is A43). […]
The induction factor represents the degree to which gene expression is controlled, and is determined from the ratio of the maximum induced protein expression over the basal protein expression level. […]

Question: Which “effect upon DsRed induction” value (M6 riboswitch [1]; simultaneous increase in 2AP) does the source give for Nc1ncc2[nH]cnc2n1 [2AP, 2-aminopurine] here?
Answer: Its value is “essentially no effect”.

Question: What about the “output, eGFP” value ([2]; 2AP in the presence of Am (250 μM)) of the same compound?
Answer: The value was 25.9×10^6 fu/OD620.

Question: And the “maximum induction factor, eGFP” value ([2]; highest concentrations of both inducers (Am and 2AP))?
Answer: The value was 24.1.

Question: What about the “maximum output, eGFP” value ([2]; titration of 2AP alone) of the same compound?
Answer: Its value is 14.8×10^6 fu/OD620.

Question: What about the “induction factor, eGFP” value (add A-riboswitch; increasing 2AP) of the same compound?
Answer: Its value is 11.3.

Question: What about the “maximum eGFP levels” value (add A-riboswitch; unaffected by Am) of the same compound?
Answer: Its value is “ca. 55×10^6 fu/OD620”.

Question: What about the binding interaction (M6) of the same compound?
Answer: Its binding interaction is “no binding interaction”.

Question: For Nc1nc(N)c2cncnc2n1 [A43, pyrimido[4,5-d]pyrimidine-2,4-diamine], which “induction of T7 RNA polymerase (blot)” value (M6″ riboswitch [3]; A43 50, 100, 250, 1000 μM, lac I forward or reverse, FIG. 48) is on record?
Answer: Its value is “dose-dependent”.

Question: What about the “regulation of T7RNAP (western blot)” value (M6″ riboswitch [3]; pTTv9, A43 2→250 uM, absence and presence of A1 (250 uM)) of the same compound?
Answer: The value was “dose dependent regulation”.

Question: And the “maximum eGFP expression compared with WT” value (M6″ riboswitch [4]; eGFP expression assay, FIG. 58)?
Answer: The value was “exceeds that of the WT (adddA) with adenine”.

Question: What about the “induction of gene expression” value (M6″ riboswitch [4]; in E. coli) of the same compound?
Answer: The value was 12 fold.

Question: What about the “induction of gene expression” value (M6″ riboswitch [4]; in combination with lac promoter/operator, FIG. 53) of the same compound?
Answer: Its value is over 400 fold.

Question: What about the induction factor (M6″ riboswitch [4]; maximum induced over basal, IPTG plus A43) of the same compound?
Answer: The induction factor was about 450.

Question: And the Kd (M6″ riboswitch aptamer; isothermal titration calorimetry, FIG. 59, read-out: Kd)?
Answer: Its Kd is 0.189 µM.

Question: And the affinity [5]?
Answer: Its affinity is “no affinity”.

Question: What about the “dynamic range of control (max/un-induced)” value (M6″ riboswitch [6]; 105 nt spacer, IPTG (0.5 mM) plus A43 (250 uM)) of the same compound?
Answer: The value was 134 fold.

Question: And the “induction factor above IPTG expression” value (M6″ riboswitch [6]; sp120)?
Answer: Its value is “up to 12 fold”.

Question: For Nc1ncnc(=O)[nH]1 [compound 3, azacytosine], which “response of riboswitch to ligand” value (AddA riboswitch) is on record?
Answer: Its value is “does not respond”.

Question: And the Kd (M6C″ riboswitch aptamer)?
Answer: The Kd was 1 to 1.2 µM.

Question: Which results are given for Nc1ncnc2nc[nH]c12 [adenine]?
Answer: response of riboswitch to ligand (M6″ riboswitch [4]; M6″): neither responds; response of riboswitch to ligand (M6C″ riboswitch): neither responds; affinity (M6″ riboswitch aptamer; ITC, M6″ aptamer domain): no affinity; affinity (M6C″ riboswitch aptamer): no affinity

Question: For Nc1nc(N)c2nccnc2n1 [A44, 2,4-Diaminopteridine], which Kd (M6″ riboswitch aptamer; ITC, FIG. 60, read-out: in vitro binding affinity) is on record?
Answer: Its Kd is about 2 µM.

Question: For Nc1nc(N)[nH]c(=O)n1 [Am, ammeline], which “maximum normalized red fluorescence” value (M6 riboswitch [1]; absence of 2AP) is on record?
Answer: The value was 1.1×10^5 fu/OD620.

Question: And the “maximum normalized red fluorescence” value (M6 riboswitch [1]; presence of 2AP 250 μM)?
Answer: The value was 1.0×10^5 fu/OD620.

Question: And the “maximum induction factor, DsRed” value (M6 riboswitch [1]; increasing Am, co-administration of 2-AP)?
Answer: The value was 9.3.

Question: What about the “response of riboswitch to ligand” value (AddA riboswitch) of the same compound?
Answer: Its value is “does not respond”.

Question: What about the “maximum DsRed induction factor” value (M6 riboswitch [7]) of the same compound?
Answer: The value was 21.2.

Question: What about the “maximum output, DsRed expression” value (M6 riboswitch [7]; Am 0→250 μM, presence or absence of 2AP (0 or 250 μM)) of the same compound?
Answer: Its value is 2.9×10^6 fu/OD620.

Question: What about the “effect upon induction of eGFP expression” value (add A-riboswitch; changes in Am concentration) of the same compound?
Answer: Its value is “no effect”.

Question: And the Kd (M6″ riboswitch aptamer; ITC, M6″ aptamer domain, read-out: Kd)?
Answer: Its Kd is 1 to 1.2 µM.

Question: What about the binding interaction (add A) of the same compound?
Answer: Its binding interaction is “no binding interaction”.

Question: Which “regulation upon addition of IPTG” value (M6″ riboswitch [3]; sp105) does the source give for CC(C)S[C@@H]1O[C@H](CO)[C@H](O)[C@H](O)[C@H]1O [IPTG] here?
Answer: The value was 44 fold.

Question: What about the “regulation upon addition of IPTG” value (M6″ riboswitch [3]; sp120) of the same compound?
Answer: The value was about 1 fold.

Question: What about the “control +/−IPTG” value (M6″ riboswitch [4]; riboswitch containing construct, column 2, no riboswitch inducer) of the same compound?
Answer: Its value is 40 fold.

Question: What about the “induction factor (control +/−IPTG)” value (lac promoter/operator) of the same compound?
Answer: Its value is 4.
